Results taken from US8163909B2, “Substituted hydroxyethyl amine compounds as beta-secretase modulators and methods of use” (Amgen Inc., priority 2007, dated 2012).
Read-outs that look alike come from different tables or passages of the source.

What was measured:
[1] = target: Beta Secretase enzyme (BACE) (Homo sapiens, UniProt P56817); assay: In vitro enzymatic BACE FRET (fluorescence resonance energy transfer) assay; assay type: biochemical; details: BACE enzyme assay, IC50's in uM; read-out: BACE1 FRET assay;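 also: fluorescence read after 1 h with 50 nM quenched peptide substrate spanning the BACE cleavage site, in pH 4.2 acetate buffer containing 10% DMSO and nonionic detergent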
[2] = test system: Aβ40 in conditioned medium of cells stably expressing Amyloid Precursor Protein (APP); assay: In vitro BACE cell-based assay (Aβ40 in conditioned medium, sandwich ELISA); details: Homo sapiens, HEK293, HEK cell-based assay, IC50's in uM; read-out: HEK cell assay;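 also: compounds added as a dilution series, secreted peptide quantified by europium time-resolved fluorescence readout, potency fitted from percent of control versus compound concentration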
CYP3A4 (CYP3A) = CYP3A4 (CYP3A) (Homo sapiens, UniProt P08684); assay: in vitro; details: microsomes, pH 7.4;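 also: inhibition of CYP3A-mediated 1-hydroxymidazolam formation after 10 min incubation with NADPH, quantified by HPLC MS relative to metabolite produced without test compound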
[3] = Microsomal stability assay, rat liver microsomes; details: rat liver microsomal data;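 also: rat liver microsomes (0.25 mg/mL) with about 1 µM compound plus 1 mM NADPH, pH 7.4, 37 °C for 30 min, parent left measured by LC-MS/MS against 0 min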
[4] = Microsomal stability assay, human liver microsomes; details: human liver microsomal data;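 also: pooled human liver microsomes at 0.25 mg/mL with 1 µM compound and NADPH at 37 °C, pH 7.4, for 30 min, unchanged parent quantified by LC-MS/MS against the 0 min sample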
CYP2D6 = CYP2D6 (Homo sapiens, UniProt P10635); assay: CYP2D6 inhibition assay (bufuralol, pooled human liver microsomes)
[5] = 2D6 IC50 (uM), CYP enzyme inhibition

CYP3A4 (CYP3A), sequence (P08684 2-503): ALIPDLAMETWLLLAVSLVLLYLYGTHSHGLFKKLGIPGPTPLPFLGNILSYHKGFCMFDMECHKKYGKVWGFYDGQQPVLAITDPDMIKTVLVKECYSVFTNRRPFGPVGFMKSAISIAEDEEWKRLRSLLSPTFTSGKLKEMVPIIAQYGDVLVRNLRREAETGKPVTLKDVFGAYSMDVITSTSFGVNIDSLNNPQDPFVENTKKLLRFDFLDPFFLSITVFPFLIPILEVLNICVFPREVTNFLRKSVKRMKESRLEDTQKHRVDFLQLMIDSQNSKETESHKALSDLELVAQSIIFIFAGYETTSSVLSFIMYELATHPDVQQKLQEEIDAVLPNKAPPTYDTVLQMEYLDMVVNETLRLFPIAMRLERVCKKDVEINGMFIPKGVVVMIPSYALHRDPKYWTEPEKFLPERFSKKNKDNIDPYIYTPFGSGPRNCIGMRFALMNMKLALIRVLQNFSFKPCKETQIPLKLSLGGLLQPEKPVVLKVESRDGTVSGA
Beta Secretase enzyme (BACE), sequence (P56817 46-501): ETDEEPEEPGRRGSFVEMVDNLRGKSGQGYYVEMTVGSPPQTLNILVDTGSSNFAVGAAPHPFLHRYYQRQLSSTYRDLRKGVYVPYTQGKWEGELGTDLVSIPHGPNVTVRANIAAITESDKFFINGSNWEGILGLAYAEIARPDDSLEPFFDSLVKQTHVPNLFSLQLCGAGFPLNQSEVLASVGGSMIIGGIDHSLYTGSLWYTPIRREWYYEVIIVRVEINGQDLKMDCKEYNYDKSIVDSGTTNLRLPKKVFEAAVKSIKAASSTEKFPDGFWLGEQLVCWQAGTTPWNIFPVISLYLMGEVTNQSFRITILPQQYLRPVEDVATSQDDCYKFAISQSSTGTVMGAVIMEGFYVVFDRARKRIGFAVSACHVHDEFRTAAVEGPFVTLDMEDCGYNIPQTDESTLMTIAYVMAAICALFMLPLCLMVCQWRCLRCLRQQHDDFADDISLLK
CYP2D6, sequence (P10635 whole entry): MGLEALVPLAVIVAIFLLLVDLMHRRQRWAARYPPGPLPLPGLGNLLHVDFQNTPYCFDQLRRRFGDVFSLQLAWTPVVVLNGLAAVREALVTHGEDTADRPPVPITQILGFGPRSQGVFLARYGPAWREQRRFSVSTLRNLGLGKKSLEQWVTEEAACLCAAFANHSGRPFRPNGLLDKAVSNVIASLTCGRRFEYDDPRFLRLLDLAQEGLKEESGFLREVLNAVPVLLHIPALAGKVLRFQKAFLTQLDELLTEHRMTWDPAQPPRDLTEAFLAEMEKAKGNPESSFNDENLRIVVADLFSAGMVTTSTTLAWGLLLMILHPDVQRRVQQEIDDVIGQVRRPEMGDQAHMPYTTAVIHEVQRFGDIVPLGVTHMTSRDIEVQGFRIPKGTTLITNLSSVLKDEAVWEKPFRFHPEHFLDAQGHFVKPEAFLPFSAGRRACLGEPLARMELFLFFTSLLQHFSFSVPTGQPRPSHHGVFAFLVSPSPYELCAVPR

Structure (SMILES) | IC50 [1] [µM] | IC50 [2] [µM] | IC50 (CYP3A4 (CYP3A)) [nM] | RLM [3] [µL/min/mg] | HLM [4] [µL/min/mg] | IC50 (CYP2D6; [5]) [µM] | IC50 (CYP2D6) [µM]
COCC(=O)N[C@@H](Cc1cccc(-c2ncc(C)s2)c1)[C@H](O)CN[C@H]1CC2(CCC2)Oc2ncc(CC(C)(C)C)cc21 [compound 759, N-((1S,2R)-3-(((4′S)-6′-(2,2-dimethylpropyl)-3′,4′-dihydrospiro[cyclobutane-1,2′-pyrano[2,3-b]pyridin]-4′-yl)amino)-2-hydroxy-1-(3-(5-methyl-1,3-thiazol-2-yl)benzyl)propyl)-2-methoxyacetamide] | 0.021 | 0.071 | 300 | 399 | 436 | 1.5 | –
CO[C@H](C)C(=O)N[C@@H](Cc1ccc(F)c(-c2nccs2)c1)[C@H](O)CN[C@H]1CC2(CCC2)Oc2ncc(CC(C)(C)F)cc21 [compound 760] | 0.031 | 0.1 | 300 | 31 | 26 | 0.8 | –
Cc1nc(CN2CCO[C@H](C(=O)N[C@@H](Cc3ccc(F)cc3)[C@H](O)CN[C@H]3CC4(CCC4)Oc4ncc(CC(C)(C)C)cc43)C2)cs1 [compound 762] | 0.037 | 0.037 | 300 | 522 | 297 | 2.6 | –
COCC(=O)N[C@@H](Cc1cccc(F)c1)[C@H](O)CN[C@H]1CC2(CCC2)Oc2nc3c(cc21)[C@H](C(C)C)CO3 [compound 763] | 2.5 | 1.3 | 2000 | 399 | 399 | 2 | –
CO[C@H](C)C(=O)N[C@@H](Cc1cc(F)cc(-c2nccs2)c1)[C@H](O)CNC1CC2(CCC2)Oc2ncc(CC(C)(F)F)cc21 (stereo partly drawn) [compound 765, (2R)-N-((1S,2R)-3-((6′-(2,2-difluoropropyl)-3′,4′-dihydrospiro[cyclobutane-1,2′-pyrano[2,3-b]pyridin]-4′-yl)amino)-1-(3-fluoro-5-(1,3-thiazol-2-yl)benzyl)-2-hydroxypropyl)-2-methoxypropanamide] | 0.021 | 0.054 | 200 | 39 | 35 | 0.7 | –
C#Cc1cnc2c(c1)[C@@H](NC[C@@H](O)[C@H](Cc1cc(F)cc(-c3nccs3)c1)NC(=O)COC)CC1(CCC1)O2 [compound 766] | 0.055 | 0.272 | 200 | 64 | 70 | 1.4 | –
COCC(=O)N[C@@H](Cc1ccc2c(c1)OCO2)[C@H](O)CN[C@H]1CC2(CCC2)Oc2c(-c3ccccn3)cc(CC(C)C)cc21 [compound 767] | 0.198 | 0.251 | 100 | 150 | 157 | 3.6 | –
CO[C@H](C)C(=O)N[C@@H](Cc1ccc(F)c(-c2nccs2)c1)[C@H](O)CN[C@H]1CC2(CCC2)Oc2ncc(CC(C)C)cc21 [compound 768, (2R)-N-((1S,2R)-1-(4-fluoro-3-(1,3-thiazol-2-yl)benzyl)-2-hydroxy-3-(((4′S)-6′-(2-methylpropyl)-3′,4′-dihydrospiro[cyclobutane-1,2′-pyrano[2,3-b]pyridin]-4′-yl)amino)propyl)-2-methoxypropanamide] | 0.022 | 0.105 | 100 | 70 | 39 | 0.4 | –
CC(C)(C)Cc1cnc2c(c1)[C@@H](NC[C@@H](O)[C@H](Cc1ccc(F)cc1)NC(=O)[C@@H]1CN(Cc3nccs3)CCO1)CC1(CCC1)O2 [compound 769] | 0.01 | 0.013 | 400 | 333 | 706 | 5.2 | –
CO[C@H](C)C(=O)N[C@@H](Cc1cc(F)cc(-c2nccs2)c1)[C@H](O)CN[C@H]1CC2(CCC2)Oc2ccc(CC(C)C)cc21 [compound 770] | 0.01 | 0.052 | 300 | 201 | 145 | 0.5 | –
COCC(=O)N[C@@H](Cc1cc(F)cc(-c2nccs2)c1)[C@H](O)CN[C@H]1CC2(CCC2)Oc2ccc(CC(C)C)cc21 [compound 771, N-((1S,2R)-1-(3-fluoro-5-(1,3-thiazol-2-yl)benzyl)-2-hydroxy-3-(((4S)-6-(2-methylpropyl)-3,4-dihydrospiro[chromene-2,1′-cyclobutan]-4-yl)amino)propyl)-2-methoxyacetamide] | 0.005 | 0.04 | 700 | 201 | 150 | 0.5 | –
CC(C)(C)Cc1cnc2c(c1)[C@@H](NC[C@@H](O)[C@H](Cc1ccc(F)cc1)NC(=O)[C@H]1CN(Cc3cscn3)CCO1)CC1(CCC1)O2 [compound 774] | 0.017 | 0.006 | 200 | 57 | 111 | 5.3 | –
CC(C)(C)Cc1cnc2c(c1)[C@@H](NC[C@@H](O)[C@H](Cc1ccc3c(c1)OCO3)NC(=O)CC1CCS(=O)(=O)C1)CC1(CCC1)O2 (stereo partly drawn) [compound 778] | 0.048 | 0.05 | 100 | 141 | 62 | 8.5 | –
CC(C)(C)Cc1cnc2c(c1)[C@@H](NC[C@@H](O)[C@H](Cc1ccc3c(c1)OCO3)NC(=O)C1CCS(=O)(=O)C1)CC1(CCC1)O2 (stereo partly drawn) [compound 779] | 0.057 | 0.075 | 100 | 66 | 36 | 3.9 | –
C#Cc1cc(C[C@H](NC(=O)COC)[C@H](O)CN[C@H]2CC3(CCC3)Oc3ncc(CC(C)C)cc32)ccc1F [compound 780, N-((1S,2R)-1-(3-ethynyl-4-fluorobenzyl)-2-hydroxy-3-(((4′S)-6′-(2-methylpropyl)-3′,4′-dihydrospiro[cyclobutane-1,2′-pyrano[2,3-b]pyridin]-4′-yl)amino)propyl)-2-methoxyacetamide] | 0.01 | 0.032 | 100 | 74 | 61 | – | 1.4
CO[C@H](C)C(=O)N[C@@H](Cc1cncs1)[C@H](O)CN[C@H]1CC2(CCC2)Oc2c1cc(CC(C)(C)C)nc2-c1ccccn1 [compound 781] | 0.071 | 0.206 | 400 | 82 | 104 | ≥ 27 | –
COCC(=O)N[C@@H](Cc1cc(F)cc(F)c1)[C@H](O)CN[C@H]1CC2(CCC2)Oc2c(-c3ccncc3)cc(C3CC3)cc21 [compound 783] | 0.031 | 0.029 | 300 | 107 | 73 | 0.3 | –
C#Cc1cnc2c(c1)[C@@H](NC[C@@H](O)[C@H](Cc1cc(F)cc(-c3nccs3)c1)NC(=O)[C@@H](C)OC)CC1(CCC1)O2 [compound 784] | 0.158 | 0.864 | ≤ 30 | 64 | 51 | 1 | –
CC(C)(C)Cc1cnc2c(c1)[C@@H](NC[C@@H](O)[C@H](Cc1ccc(F)cc1)NC(=O)[C@@H]1CN(Cc3cscn3)CCO1)CC1(CCC1)O2 [compound 786] | 0.047 | 0.029 | 300 | 129 | 169 | 7.9 | –
COCC(=O)N[C@@H](Cc1ccc(-c2nccs2)c(F)c1)[C@H](O)CN[C@H]1CC2(CCC2)Oc2ncc(CC(C)C)cc21 [compound 787] | 0.11 | 0.451 | 200 | 79 | 58 | 0.8 | –
COCCC(=O)N[C@@H](Cc1cccc(-c2nccs2)c1)[C@H](O)CN[C@H]1CC2(CCC2)Oc2ncc(CC(C)(C)C)cc21 [compound 791] | 0.009 | 0.012 | 100 | 33 | 43 | 0.6 | –
CC(=S)N[C@@H](Cc1cccc(-c2nccs2)c1)[C@H](O)CN[C@H]1CC2(CCC2)Oc2ncc(CC(C)(C)C)cc21 [compound 793] | 0.03 | 0.067 | 100 | 60 | 99 | 0.4 | –
CO[C@H](C)C(=O)N[C@@H](Cc1cncs1)[C@H](O)CN[C@H]1CC2(CCC2)Oc2ncc([C@@H]3CC3(C)C)cc21 [compound 794] | 0.005 | 0.009 | 500 | 132 | 205 | 9.8 | –
CC(C)Cc1cnc2c(c1)[C@@H](NC[C@H](O)[C@@H](Cc1cccc(-c3nccs3)c1)NC(=O)[C@H]1CCCO1)CC1(CCC1)O2 [compound 795] | 0.286 | 0.206 | 200 | 64 | 127 | 0.6 | –
COC(OC)C(=O)N[C@@H](Cc1cccc(F)c1)[C@H](O)CN[C@H]1CC2(CCC2)Oc2ncc(CC(C)(F)F)cc21 [compound 797] | 0.008 | 0.017 | 1400 | 199 | 256 | 4.1 | –
